The text below walks through data of patent US11981646B1, “3-(4-methoxyphenyl)-5-{[5-methyl-2-(propan-2-yl)phenoxy]methyl}-1,2,4-oxadiazole as an antitumor and antimicrobial compound” (King Faisal University, priority 2023, dated 2024).

Assay [1] concerns human prostate cancer cells (PC3). The assay can be described thus: Assessment of cytotoxicity by SRB assay, PC3 cells. Type of assay: cell-based. To be noted: 0.01 μM to 100 μM for 72 h. As for the experimental part: (§1) Human prostate cancer cells (PC3) and human osteosarcoma cells (MG-63) were obtained from Nawah Scientific Inc. (Mokatam, Cairo, Egypt) and cultured in DMEM (Dulbecco's modified eagle's medium), Gibco, USA, supplemented with fetal bovine serum (FBS) at a concentration of 10% and 100 U/mL of penicillin and streptomycin (PS). The Cells were incubated at 37° C. in a humidified environment that contained 5% CO2. Cells were seeded in 96-well plates as aliquots of 100 μL cell suspension and incubated in a complete media for 24 h. Afterward, cells were treated with 3-(4-methoxyphenyl)-5-{[5-methyl-2-(propan-2-yl)phenoxy]methyl}-1,2,4-oxadiazole at diverse concentrations ranging from 0.01 μM to 100 μM for 72 h. Then, cells were fixed at 4° C. for one hour with 150 μL of 10% trichloroacetic acid (TCA). After washing the cells five times with distilled water, 70 μL of sulforhodamine (SRB) solution (0.4% w/v) was added and incubated for 10 min at room temperature in a dark place. […] Then, 150 μL of Tris pH 10.5 (10 mM) was added, and the absorbance was measured at 540 nm using a BMG LABTECH®-FLUOstar Omega microplate reader (Ortenberg, Germany). Half maximal inhibitory concentrations (IC50) values were calculated for each experiment using GraphPad Prism 6 software. […] The inhibition was calculated using the following equation: Inhibition %=100−Average Viability
(In SRB staining, fixed cells bind dye roughly in proportion to their protein.)

Assay [2] concerns human osteosarcoma cells (MG-63). Kind of assay: Assessment of cytotoxicity by SRB assay, MG-63 cells. Type of assay: cell-based. To be noted: 0.01 μM to 100 μM for 72 h. Here is the method: as §1

For `COc1ccc(-c2noc(COc3cc(C)ccc3C(C)C)n2)cc1` [3-(4-methoxyphenyl)-5-{[5-methyl-2-(propan-2-yl)phenoxy]methyl}-1,2,4-oxadiazole], in assay [1], the “antiproliferative activity against prostate cancer cells (PC3)” value is recorded as “excellent antiproliferative activities”. For the same compound, the “antiproliferative activity against osteosarcoma (MG-63) cells” value in assay [2] was “excellent antiproliferative activities”.
